Results from US10065956B2, “Ethynyl derivatives” (Hoffmann-La Roche Inc., priority 2015, dated 2018).

Biological target: T1, human mGlu4 receptor (Homo sapiens, UniProt Q14833)
T1 construct: expressed in transfected cells; host or cells: monoclonal HEK-293 cell line, stably transfected
Assay: Ca2+ mobilization in vitro assay on recombinant human mGlu4 expressed in HEK293 cells (PAM, L-AP4 at EC20)
Format: cell-based
Details: for Emax: HEK293, maximal response in % of the maximal stimulatory effect obtained with saturating concentrations of L-AP4, read-out: Eff. (%); for EC50: HEK293 cells expressing human mGlu4, L-AP4 added at EC20
Source text: FIG. 1: Illustration of the experimental outline for mGlu4 PAM Ca2+ mobilization screening assay and the determination of EC50 and % Emax values.
Determination of EC50 Values Using a Ca2+ Mobilization In Vitro Assay on Recombinant Human mGlu4 Expressed in HEK293 Cells:
A monoclonal HEK-293 cell line stably transfected with a cDNA encoding for the human mGlu4 receptor was generated; for the work with mGlu4 Positive Allosteric Modulators (PAMs), a cell line with low receptor expression levels and low constitutive receptor activity was selected to allow the differentiation of agonistic versus PAM activity. Cells were cultured according to standard protocols (Freshney, 2000) in Dulbecco's Modified Eagle Medium with high glucose supplemented with 1 mM glutamine, 10% (vol/vol) heat-inactivated bovine calf serum, Penicillin/Streptomycin, 50 μg/ml hygromycin and 15 μg/ml blasticidin (all cell culture reagents and antibiotics from Invitrogen, Basel, Switzerland).
About 24 hrs before an experiment, 5×10^4 cells/well were seeded in poly-D-lysine coated, black/clear-bottomed 96-well plates. The cells were loaded with 2.5 μM Fluo-4AM in loading buffer (1×HBSS, 20 mM HEPES) for 1 hr at 37° C. and washed five times with loading buffer. The cells were transferred into a Functional Drug Screening System 7000 (Hamamatsu, Paris, France), and 11 half logarithmic serial dilutions of test compound at 37° C. were added and the cells were incubated for 10-30 min. with on-line recording of fluorescence. Following this pre-incubation step, the agonist (2S)-2-amino-4-phosphonobutanoic acid (L-AP4) was added to the cells at a concentration corresponding to EC20 with on-line recording of fluorescence; in order to account for day-to-day variations in the responsiveness of cells, the EC20 of L-AP4 was determined immediately ahead of each experiment by recording of a full dose-response curve of L-AP4. Responses were measured as peak increase in fluorescence minus basal (i.e. fluorescence without addition of L-AP4), normalized to the maximal stimulatory effect obtained with saturating concentrations of L-AP4. Graphs were plotted with the % maximal stimulatory using XLfit, a curve fitting program that iteratively plots the data using Levenburg Marquardt algorithm. The single site competition analysis equation used was y=A+((B−A)/(1+((x/C)D))), where y is the % maximal stimulatory effect, A is the minimum y, B is the maximum y, C is the EC50, x is the log 10 of the concentration of the competing compound and D is the slope of the curve (the Hill Coefficient). From these curves the EC50 (drug concentration at which 50% of the maximal receptor activation was achieved), the Hill coefficient as well as the maximal response in % of the maximal stimulatory effect obtained with saturating concentrations of L-AP4 were calculated (see FIG. 1). […] A depression of the signal observed after addition of the EC20 concentration of L-AP4 was indicative of an inhibitory activity of the test compound.

T1 sequence (Q14833 33-912): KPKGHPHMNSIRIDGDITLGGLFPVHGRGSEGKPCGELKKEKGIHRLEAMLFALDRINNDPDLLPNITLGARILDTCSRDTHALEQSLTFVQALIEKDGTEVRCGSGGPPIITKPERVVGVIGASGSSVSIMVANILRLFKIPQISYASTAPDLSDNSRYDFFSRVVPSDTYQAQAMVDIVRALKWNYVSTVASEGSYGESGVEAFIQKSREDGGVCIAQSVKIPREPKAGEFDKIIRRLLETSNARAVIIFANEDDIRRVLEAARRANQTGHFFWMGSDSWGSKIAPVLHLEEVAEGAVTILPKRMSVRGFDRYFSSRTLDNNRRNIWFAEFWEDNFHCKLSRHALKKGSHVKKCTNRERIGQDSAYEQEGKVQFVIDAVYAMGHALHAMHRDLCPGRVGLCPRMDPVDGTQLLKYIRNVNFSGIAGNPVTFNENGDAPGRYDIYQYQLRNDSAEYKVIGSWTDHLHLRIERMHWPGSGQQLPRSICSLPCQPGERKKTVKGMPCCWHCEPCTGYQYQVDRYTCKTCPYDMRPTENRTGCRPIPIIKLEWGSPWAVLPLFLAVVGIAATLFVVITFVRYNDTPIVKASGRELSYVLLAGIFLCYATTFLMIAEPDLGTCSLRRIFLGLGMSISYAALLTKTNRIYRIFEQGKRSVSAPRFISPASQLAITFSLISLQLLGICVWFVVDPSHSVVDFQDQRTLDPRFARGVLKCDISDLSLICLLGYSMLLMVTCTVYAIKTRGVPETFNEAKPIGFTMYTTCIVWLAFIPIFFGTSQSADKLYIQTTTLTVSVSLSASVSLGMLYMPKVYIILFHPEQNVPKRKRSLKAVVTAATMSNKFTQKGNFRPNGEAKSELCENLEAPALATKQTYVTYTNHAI

Emax | EC50 | Compound
196% | 59 nM | CN1C(=O)N(c2c(F)cc(C#Cc3ccccc3)cc2F)C(=O)C[C@@]1(C)c1cnn(C)n1 [Example 33, (6S)-3-[2,6-Difluoro-4-(2-phenylethynyl)phenyl]-1,6-dimethyl-6-(2-methyltriazol-4-yl)hexahydropyrimidine-2,4-dione]
156% | 97 nM | CN1C(=O)N(c2c(F)cc(C#Cc3ccccc3)cc2F)C(=O)C[C@@]1(C)c1ccn(CCO)n1 [Example 46, (S)-3-(2,6-Difluoro-4-(phenylethynyl)phenyl)-6-(1-(2-hydroxyethyl)-1H-pyrazol-3-yl)-1,6-dimethyldihydropyrimidine-2,4(1H,3H)-dione]
95% | 136 nM | CN1C(=O)N(c2c(F)cc(C#Cc3ccccc3)cc2F)C(=O)C[C@@]1(C)c1ncnn1C [Example 4, (6S)-3-[2,6-Difluoro-4-(2-phenylethynyl)phenyl]-1,6-dimethyl-6-(2-methyl-1,2,4-triazol-3-yl)hexahydropyrimidine-2,4-dione]
148% | 71 nM | Cc1ncc([C@]2(C)CC(=O)N(c3c(F)cc(C#Cc4ccccc4)cc3F)C(=O)N2C)s1 [Example 39, (6S)-3-[2,6-Difluoro-4-(2-phenylethynyl)phenyl]-1,6-dimethyl-6-(2-methylthiazol-5-yl)hexahydropyrimidine-2,4-dione]
140% | 79 nM | CN1C(=O)N(c2c(F)cc(C#Cc3cc(F)ccc3F)cc2F)C(=O)C[C@@]1(C)c1cnn(C)c1 [Example 48, (6S)-3-[4-[2-(2,5-Difluorophenyl)ethynyl]-2,6-difluoro-phenyl]-1,6-dimethyl-6-(1-methylpyrazol-4-yl)hexahydropyrimidine-2,4-dione]
91% | 59 nM | CN1C(=O)N(c2c(F)cc(C#Cc3ccccc3)cc2F)C(=O)C[C@@]1(C)c1cncn1C [Example 11, (6S)-3-[2,6-Difluoro-4-(2-phenylethynyl)phenyl]-1,6-dimethyl-6-(3-methylimidazol-4-yl)hexahydropyrimidine-2,4-dione]
136% | 71 nM | CN1C(=O)N(c2c(F)cc(C#Cc3cccc(F)c3)cc2F)C(=O)C[C@@]1(C)c1cnn(C)c1 [Example 47, (6S)-3-[2,6-Difluoro-4-[2-(3-fluorophenyl)ethynyl]phenyl]-1,6-dimethyl-6-(1-methylpyrazol-4-yl)hexahydropyrimidine-2,4-dione]
152% | 39 nM | CN1C(=O)N(c2c(F)cc(C#Cc3ccccc3)cc2F)C(=O)C[C@@]1(C)c1ccsn1 [Example 38, (6S)-3-[2,6-Difluoro-4-(2-phenylethynyl)phenyl]-6-isothiazol-3-yl-1,6-dimethyl-hexahydropyrimidine-2,4-dione]
155% | 81 nM | CN1C(=O)N(c2c(F)cc(C#Cc3ccccc3)cc2F)C(=O)C[C@@]1(C)c1cn(C)c2ncccc12 [Example 9, (6S)-3-[2,6-Difluoro-4-(2-phenylethynyl)phenyl]-1,6-dimethyl-6-(1-methylpyrrolo[2,3-b]pyridin-3-yl)hexahydropyrimidine-2,4-dione]
151% | 67 nM | CN1C(=O)N(c2c(F)cc(C#Cc3ccccc3)cc2F)C(=O)C[C@@]1(C)c1ccns1 [Example 43, (6S)-3-[2,6-Difluoro-4-(2-phenylethynyl)phenyl]-6-isothiazol-5-yl-1,6-dimethyl-hexahydropyrimidine-2,4-dione]
131% | 36 nM | CN1C(=O)N(c2c(F)cc(C#Cc3ccccc3)cc2F)C(=O)C[C@@]1(C)c1cn[nH]c1 [Example 16, (6S)-3-[2,6-Difluoro-4-(2-phenylethynyl)phenyl]-1,6-dimethyl-6-(1H-pyrazol-4-yl)hexahydropyrimidine-2,4-dione]
134% | 54 nM | CN1C(=O)N(c2c(F)cc(C#Cc3cccc(F)c3F)cc2F)C(=O)C[C@@]1(C)c1cn[nH]c1 [Example 55, (6S)-3-[4-[2-(2,3-Difluorophenyl)ethynyl]-2,6-difluoro-phenyl]-1,6-dimethyl-6-(1H-pyrazol-4-yl)hexahydropyrimidine-2,4-dione]
138% | 94 nM | Cc1nc(C2(C)CC(=O)N(c3c(F)cc(C#Cc4ccccc4)cc3F)C(=O)N2C)cs1 (racemic) [Example 3, (6RS)-3-[2,6-Difluoro-4-(2-phenylethynyl)phenyl]-1,6-dimethyl-6-(2-methylthiazol-4-yl)hexahydropyrimidine-2,4-dione]
165% | 123 nM | CN1C(=O)N(c2c(F)cc(C#Cc3ccccc3)cc2F)C(=O)C[C@@]1(C)c1ccno1 [Example 41, (6S)-3-[2,6-Difluoro-4-(2-phenylethynyl)phenyl]-6-isoxazol-5-yl-1,6-dimethyl-hexahydropyrimidine-2,4-dione]
142% | 37 nM | CN1C(=O)N(c2c(F)cc(C#Cc3ccccc3)cc2F)C(=O)C[C@@]1(C)c1ccon1 [Example 40, (6S)-3-[2,6-Difluoro-4-(2-phenylethynyl)phenyl]-6-isoxazol-3-yl-1,6-dimethyl-hexahydropyrimidine-2,4-dione]
127% | 31 nM | CN1C(=O)N(c2c(F)cc(C#Cc3ccccc3)cc2F)C(=O)C[C@@]1(C)c1cnn(C2CC2)c1 [Example 52, (6S)-6-(1-Cyclopropylpyrazol-4-yl)-3-[2,6-difluoro-4-(2-phenylethynyl)phenyl]-1,6-dimethyl-hexahydropyrimidine-2,4-dione]
207% | 71 nM | CN1C(=O)N(c2c(F)cc(C#Cc3ccccc3)cc2F)C(=O)C[C@@]1(C)c1cn(C)nn1 [Example 34, (6S)-3-[2,6-Difluoro-4-(2-phenylethynyl)phenyl]-1,6-dimethyl-6-(1-methyltriazol-4-yl)hexahydropyrimidine-2,4-dione]
164% | 41 nM | CN1C(=O)N(c2c(F)cc(C#Cc3cccnc3)cc2F)C(=O)C[C@@]1(C)c1cn[nH]c1 [Example 36, (6S)-3-[2,6-Difluoro-4-[2-(3-pyridyl)ethynyl]phenyl]-1,6-dimethyl-6-(1H-pyrazol-4-yl)hexahydropyrimidine-2,4-dione]
99% | 157 nM | CN1C(=O)N(c2c(F)cc(C#Cc3ccccc3)cc2F)C(=O)C[C@@]1(C)c1nn(C)c2ccccc12 [Example 8, (6S)-3-[2,6-Difluoro-4-(2-phenylethynyl)phenyl]-1,6-dimethyl-6-(1-methylindazol-3-yl)hexahydropyrimidine-2,4-dione]
139% | 80 nM | CN1C(=O)N(c2c(F)cc(C#Cc3ccc(F)cc3F)cc2F)C(=O)C[C@@]1(C)c1cnn(C)c1 [Example 58, (6S)-3-[4-[2-(2,4-Difluorophenyl)ethynyl]-2,6-difluoro-phenyl]-1,6-dimethyl-6-(1-methylpyrazol-4-yl)hexahydropyrimidine-2,4-dione]
128% | 71 nM | CN1C(=O)N(c2c(F)cc(C#Cc3ccccc3)cc2F)C(=O)C[C@@]1(C)c1cnn(C2CCOC2)c1 (mixture of isomers) [Example 62, (6S)-3-[2,6-Difluoro-4-(2-phenylethynyl)phenyl]-1,6-dimethyl-6-[1-[(3RS)-tetrahydrofuran-3-yl]pyrazol-4-yl]hexahydropyrimidine-2,4-dione]
143% | 56 nM | CN1C(=O)N(c2c(F)cc(C#Cc3ccccc3)cc2F)C(=O)C[C@@]1(C)c1cnn(CCCO)c1 [Example 22, (6S)-3-[2,6-Difluoro-4-(2-phenylethynyl)phenyl]-6-[1-(3-hydroxypropyl)pyrazol-4-yl]-1,6-dimethyl-hexahydropyrimidine-2,4-dione]
134% | 84 nM | CN1C(=O)N(c2c(F)cc(C#Cc3ccccc3)cc2F)C(=O)C[C@@]1(C)c1cc[nH]n1 [Example 10, (6S)-3-[2,6-Difluoro-4-(2-phenylethynyl)phenyl]-1,6-dimethyl-6-(1H-pyrazol-3-yl)hexahydropyrimidine-2,4-dione]
